Results taken from patent US5250518A, “O-methyl derivatives of azithromycin A” (priority 1990, dated 1993).
≈ marks a conversion by molar mass, not a printed value. Like-named read-outs stand apart in the source and are kept apart here.

Experiments:
[1] = system: Klebsiella pneumoniae NCTC-10499; assay: Antibacterial in vitro activity, tube dilution method (Table 1); format: cell-based; details: NCTC10499, 24 h
Procedure: (§1) O-methyl derivatives of azithromycin A of the formulae (Ii)-(Il) and their pharmaceutically acceptable addition salts have a potent antimicrobial activity. The preliminary antibacterial in vitro activity of 6-O-methyl-azithromycin A (Ii) was determined on a series of gram-positiveand gram-negative test bacteria and clinical isolates in comparison with erythromycin A. The assessment was performed by the "tube dilution" method. In the investigation there were used 24-hours cultures in "brain hearth bouillon" of standard strains and freshly isolated strains from a clinical sample.
(§2) Substrate: Brain hearth bouillon
(§3) Incubation: 24 hours, 37° C.
(§4) MIC: Minimal Inhibitory Concentration (μg/mL)
(§5) MBC: Minimal Bactericidal Concentration (μg/mL)

[2] = system: Pseudomonas aeruginosa NCTC-10490; assay: as above; format: cell-based; details: NCTC10490, 24 h
Procedure: as §1, §2, §3, §4, §5

[3] = system: Staphilococcus aureus ATCC 6538-P; assay: as above; format: cell-based; details: 24 h
Procedure: as §1, §2, §3, §4, §5

[4] = system: Streptococcus faecalis ATCC-8043; assay: as above; format: cell-based; details: Enterococcus faecalis, ATCC8043, 24 h
Procedure: as §1, §2, §3, §4, §5

[5] = system: Escherichia coli ATCC 10536; assay: as above; format: cell-based; details: ATCC10536, Brain hearth bouillon, 24 hours, 37° C.
Procedure: as §1, with “The” for “O-methyl derivatives of azithromycin A of the formulae (Ii)-(Il) and their pharmaceutically acceptable addition salts have a potent antimicrobial activity. The”

Sarcina lutea ATCC-9341 = assay: as above; format: cell-based; details: Micrococcus luteus, ATCC9341, Brain hearth bouillon, 24 hours, 37° C.
Procedure: as §1, with “The” for “O-methyl derivatives of azithromycin A of the formulae (Ii)-(Il) and their pharmaceutically acceptable addition salts have a potent antimicrobial activity. The”

[6] = system: Haemophylus influenzae 4028; assay: Antibacterial in vitro activity against clinical isolates, tube dilution method (Table 2); format: cell-based; details: clinical isolate, Brain hearth bouillon, 24 hours, 37° C.
Procedure: as §1, §2, §3, §4
(§6) MBC: Minimal Bactericidal Concentation (μg/mL)

[7] = system: Staphylococcus aureus 10097; assay: as above; format: cell-based; details: clinical isolate, Brain hearth bouillon, 24 hours, 37° C.
Procedure: as §1, §2, §3, §4, §6

[8] = system: Staphylococcus aureus 10099; assay: as above; format: cell-based; details: clinical isolate, Brain hearth bouillon, 24 hours, 37° C.
Procedure: as §1, §2, §3, §4, §6

[9] = system: Staphylococcus saprophyticus 3947; assay: as above; format: cell-based; details: clinical isolate, Brain hearth bouillon, 24 hours, 37° C.
Procedure: as §1, §2, §3, §4, §6

[10] = system: Streptococcus faecalis 10390; assay: as above; format: cell-based; details: Enterococcus faecalis, clinical isolate, Brain hearth bouillon, 24 hours, 37° C.
Procedure: as §1, §2, §3, §4, §6

[11] = system: Streptococcus pneumoniae 4050; assay: as above; format: cell-based; details: clinical isolate, Brain hearth bouillon, 24 hours, 37° C.
Procedure: as §1, §2, §3, §4, §6

[12] = cited from earlier work
ATCC 6538P = assay: Antibacterial in vitro activity in comparison with azithromycin (Table 3); format: cell-based, Staphilococcus aureus
From the text: (§7) In Table 3 there are represented in vitro tests of 6-O-methyl- (Ii), 6,11-di-O-methyl- (Ij), 11-O-methyl- (Ik) and 6,11,4"-tri-O-methyl-azithromycin A (II) in comparison with azithromycin.

ATCC 10240 = assay: as above; format: cell-based; details: Brain hearth Bouillon, 24-48 hours, 37° C., inoculum 10^-5 -10^-6 cfu/mL
From the text: as §7

ATCC 8043 = assay: as above; format: cell-based; details: Staphylococcus faecalis, ATCC8043; Brain hearth Bouillon, 24-48 hours, 37° C., inoculum 10^-5 -10^-6 cfu/mL
From the text: as §7

[13] = system: Bacillus cereus NCTC 10320; assay: as above; format: cell-based; details: NCTC10320, Brain hearth Bouillon, 24-48 hours, 37° C., inoculum 10^-5 -10^-6 cfu/mL
From the text: as §7

[14] = system: Bacillus pumilus NCTC 8241; assay: as above; format: cell-based; details: NCTC8241, Brain hearth Bouillon, 24-48 hours, 37° C., inoculum 10^-5 -10^-6 cfu/mL
From the text: as §7

[15] = system: Bacillus subtilis NCTC 8241; assay: as above; format: cell-based; details: Bacillus subtilis, NCTC8241; Brain hearth Bouillon, 24-48 hours, 37° C., inoculum 10^-5 -10^-6 cfu/mL
From the text: as §7

[16] = system: Corynebacterium xerosis NCTC 9755; assay: as above; format: cell-based; details: NCTC9755, Brain hearth Bouillon, 24-48 hours, 37° C., inoculum 10^-5 -10^-6 cfu/mL
From the text: as §7

[17] = system: Escherichia coli ATCC 10536; assay: as above; format: cell-based; details: ATCC10536, Brain hearth Bouillon, 24-48 hours, 37° C., inoculum 10^-5 -10^-6 cfu/mL
From the text: as §7

[18] = system: Pseudomonas aeruginosa NCTC 10490; assay: as above; format: cell-based; details: NCTC10490, Brain hearth Bouillon, 24-48 hours, 37° C., inoculum 10^-5 -10^-6 cfu/mL
From the text: as §7

Sarcina lutea ATCC 9341 = assay: as above; format: cell-based; details: Micrococcus luteus, ATCC9341; Brain hearth Bouillon, 24-48 hours, 37° C., inoculum 10^-5 -10^-6 cfu/mL
From the text: as §7

[19] = system: Staphylococcus epidermidis ATCC 12228; assay: as above; format: cell-based; details: ATCC12228, Brain hearth Bouillon, 24-48 hours, 37° C., inoculum 10^-5 -10^-6 cfu/mL
From the text: as §7

[20] = system: gram-negative microorganisms; details: in comparison with the parent antibiotic (erythromycin A); cited from earlier work
[21] = in comparison with the parent antibiotic (erythromycin A); cited from earlier work
[22] = system: gram-positive microorganisms; details: in comparison to erythromycin A; cited from earlier work
[23] = read-out: MBC (Minimal Bactericidal Concentration)
[24] = read-out: MIC (Minimal Inhibitory Concentration)
[25] = read-out: MBC (Minimal Bactericidal Concentation)
[26] = Brain hearth Bouillon, 24-48 hours, 37° C., inoculum 10^-5 -10^-6 cfu/mL, read-out: MIC

Question: What does the source list for `CC[C@H]1OC(=O)[C@H](C)[C@@H](O[C@H]2C[C@@](C)(OC)[C@@H](O)[C@H](C)O2)[C@H](C)[C@@H](O[C@@H]2O[C@H](C)C[C@H](N(C)C)[C@H]2O)[C@](C)(O)C[C@@H](C)C(=O)[C@H](C)[C@@H](O)[C@]1(C)O` [Erythromycin A, reference compound]?
Answer: MBC [1, 23]: > 50 µg/mL; MIC [1, 24]: > 50 µg/mL; MBC [2, 23]: > 50 µg/mL; MIC [2, 24]: > 50 µg/mL; MBC [3, 23]: 0.8 µg/mL (≈ 1.09 µM); MIC [3, 24]: 0.2 µg/mL (≈ 0.273 µM); MBC [4, 23]: 0.8 µg/mL (≈ 1.09 µM); MIC [4, 24]: 0.2 µg/mL (≈ 0.273 µM); MBC [5, 23]: > 50 µg/mL; MIC [5, 24]: 50 µg/mL (≈ 68.1 µM); MBC (Sarcina lutea ATCC-9341; [23]): 0.4 µg/mL (≈ 0.545 µM); MIC (Sarcina lutea ATCC-9341; [24]): 0.2 µg/mL (≈ 0.273 µM); MBC [6, 25]: 0.2 µg/mL (≈ 0.273 µM); MIC [6, 24]: 0.05 µg/mL (≈ 0.0681 µM); MBC [7, 25]: 0.4 µg/mL (≈ 0.545 µM); MIC [7, 24]: 0.1 µg/mL (≈ 0.136 µM); MBC [8, 25]: 0.2 µg/mL (≈ 0.273 µM); MIC [8, 24]: 0.1 µg/mL (≈ 0.136 µM); MBC [9, 25]: 0.8 µg/mL (≈ 1.09 µM); MIC [9, 24]: 0.4 µg/mL (≈ 0.545 µM); MBC [10, 25]: 3.1 µg/mL (≈ 4.22 µM); MIC [10, 24]: 0.8 µg/mL (≈ 1.09 µM); MBC [11, 25]: 0.4 µg/mL (≈ 0.545 µM); MIC [11, 24]: 0.1 µg/mL (≈ 0.136 µM); behaviour in acidic medium ([12]; acidic medium): easily converted into anhydroerythromycin

Question: Which results are given for `CC[C@H]1OC(=O)[C@H](C)[C@@H](O[C@H]2C[C@@](C)(OC)[C@@H](O)[C@H](C)O2)[C@H](C)[C@@H](O[C@@H]2O[C@H](C)C[C@H](N(C)C)[C@H]2O)[C@](C)(OC)C[C@@H](C)CN(C)[C@H](C)[C@@H](OC)[C@]1(C)O` [Ij, 6,11-Di-O-Methyl-azithromycin A]?
Answer: MIC (ATCC 6538P; [26]): 1.56 µg/mL (≈ 2.01 µM); MIC (ATCC 10240): 0.78 µg/mL (≈ 1 µM); MIC (ATCC 8043): 0.78 µg/mL (≈ 1 µM); MIC [13]: 1.56 µg/mL (≈ 2.01 µM); MIC [14]: 0.78 µg/mL (≈ 1 µM); MIC [15]: 0.78 µg/mL (≈ 1 µM); MIC [16]: 12.5 µg/mL (≈ 16.1 µM); MIC [17]: 6.25 µg/mL (≈ 8.04 µM); MIC [18]: 100 µg/mL (≈ 129 µM); MIC (Sarcina lutea ATCC 9341): 0.05 µg/mL (≈ 0.0643 µM); MIC [19]: 1.56 µg/mL (≈ 2.01 µM)

Question: With `CC[C@H]1OC(=O)[C@H](C)[C@@H](O[C@H]2C[C@@](C)(OC)[C@@H](OC)[C@H](C)O2)[C@H](C)[C@@H](O[C@@H]2O[C@H](C)C[C@H](N(C)C)[C@H]2O)[C@](C)(OC)C[C@@H](C)CN(C)[C@H](C)[C@@H](OC)[C@]1(C)O` [Il, 6,11,4"Tri-O-Methyl-azithromycin A] as the molecule, how does the MIC (ATCC 6538P; [26]) read?
Answer: 3.12 µg/mL (≈ 3.95 µM)

Question: And the MIC (ATCC 10240)?
Answer: 3.12 µg/mL (≈ 3.95 µM)

Question: What about the MIC (ATCC 8043) of the same molecule?
Answer: 0.78 µg/mL (≈ 0.986 µM)

Question: And the MIC [13]?
Answer: 3.12 µg/mL (≈ 3.95 µM)

Question: What about the MIC [14] of the same molecule?
Answer: 3.12 µg/mL (≈ 3.95 µM)

Question: What about the MIC [15] of the same molecule?
Answer: 3.12 µg/mL (≈ 3.95 µM)

Question: And the MIC [16]?
Answer: 25 µg/mL (≈ 31.6 µM)

Question: And the MIC [17]?
Answer: 6.25 µg/mL (≈ 7.9 µM)

Question: What about the MIC [18] of the same molecule?
Answer: 200 µg/mL (≈ 253 µM)

Question: What about the MIC (Sarcina lutea ATCC 9341) of the same molecule?
Answer: 0.05 µg/mL (≈ 0.0632 µM)

Question: And the MIC [19]?
Answer: 3.12 µg/mL (≈ 3.95 µM)

Question: What does the source list for `CC[C@H]1OC(=O)[C@H](C)[C@@H](O[C@H]2C[C@@](C)(OC)[C@@H](O)[C@H](C)O2)[C@H](C)[C@@H](O[C@@H]2O[C@H](C)C[C@H](N(C)C)[C@H]2O)[C@](C)(O)C[C@@H](C)CN(C)[C@H](C)[C@@H](O)[C@]1(C)O` [azithromycin, N-methyl-11-aza-10-deoxo-10-dihydroerythromycin A (9-deoxo-9a-aza-9a-methyl-9a-homoerythromycin A)]?
Answer: MIC (ATCC 6538P): 1.56 µg/mL (≈ 2.08 µM); MIC (ATCC 10240): 0.39 µg/mL (≈ 0.521 µM); MIC (ATCC 8043): 0.05 µg/mL (≈ 0.0668 µM); MIC [13]: 0.39 µg/mL (≈ 0.521 µM); MIC [14]: 0.2 µg/mL (≈ 0.267 µM); MIC [15]: 0.39 µg/mL (≈ 0.521 µM); MIC [16]: 6.25 µg/mL (≈ 8.34 µM); MIC [17]: 0.78 µg/mL (≈ 1.04 µM); MIC [18]: 100 µg/mL (≈ 134 µM); MIC (Sarcina lutea ATCC 9341): 0.05 µg/mL (≈ 0.0668 µM); MIC [19]: 0.1 µg/mL (≈ 0.134 µM); stability in acidic medium in comparison with the parent antibiotic ([12]; versus erythromycin A): improved stability in acidic medium; in vitro activity against gram-negative microorganisms [20]: improved in vitro activity against gram-negative microorganisms; concentration in the tissues [21]: significantly higher conncentration in the tissues

Question: Which “in vitro activity against gram-positive microorganisms” value [22] does the source give for `CC[C@H]1OC(=O)[C@H](C)[C@@H](O[C@H]2C[C@@](C)(OC)[C@@H](O)[C@H](C)O2)[C@H](C)[C@@H](O[C@@H]2O[C@H](C)C[C@H](N(C)C)[C@H]2O)[C@](C)(OC)C[C@@H](C)C(=O)[C@H](C)[C@@H](O)[C@]1(C)O` [clarithromycin, 6-O-methyl-erythromycin A] here?
Answer: improved in vitro activity against gram-positive microorganisms
